Assay [1] has as its system P. falciparum (NF54 or 3D7 strain). Put plainly: Assay for P. falciparum proliferation in infected human blood cells (SYBR Green). Type of assay: cell-based, Plasmodium falciparum. The note with it: Plasmodium falciparum, Erythrocyte. Summed up: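 NF54 or 3D7 parasites in O+ human erythrocytes at 2.5% hematocrit and 0.3% parasitemia final, exposed to compounds 72 h at 37 °C under 93% N2/4% CO2/3% O2.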

The subject of another assay is P. yoelii Sporozoite. In words: P. yoelii sporozoite invasion assay in HepG2-A16-CD81EGFP liver cells (immunofluorescence quantification of EEFs). Type of assay: cell-based. The note with it: Plasmodium yoelii. The source says: Compounds of the invention can be assayed to measure their capacity to inhibit proliferation of parasites in liver cells. The proliferation is quantified by determine the number of infected cells by immunofluorescence.
Due to the difficulty of successfully infecting immortalized human liver cell lines with the human malaria sporozoites (liver-stage parasite), rodent malaria sporozoites from Plasmodium yoelii (17XNL) and P. berghei (ANKA) are the preferred surrogate. Sporozoites are obtained from Anopheles stephensi mosquitoes supplied by the New York University Insectary, which ships the malaria-infected mosquitoes 10-13 days following the ingestion of an infective blood meal.
A transgenic HepG2 cell line expressing the tetraspanin CD81 receptor (HepG2-A16-CD81^EGFP) is used to increase the infectivity rate of rodent-malaria sporozoites into human cells. HepG2-A16-CD81^EGFP cells are stably transformed to express a GFP-CD81 fusion protein. A continuous in vitro culture of this line was maintained at 37° C. in 4% CO2 in complete media (CM) which contains: DMEM (Invitrogen, Carlsbad, USA) supplemented with 10% FCS, 0.29 mg/ml glutamine, 100 units penicillin and 100 μg/ml streptomycin (SigmaAldrich, USA).
P. yoelii Sporozoite Invasion Assay
These plates are incubated at 37° C. with 4% CO2 overnight. Two hours prior to infection, 50 nl of compound dissolved in DMSO (0.1% final DMSO concentration per well) were transferred with a PinTool (GNF Systems) into the assay plates (10 μM final concentration). A 1:3 serial dilution of atovaquone (10 μM at the highest final concentration) and wells treated only with DMSO were used as positive and negative controls, respectively.
Freshly dissected salivary glands from infected mosquitoes were homogenized in a glass tissue grinder, filtered twice through Nylon cell strainers (40 μm pore size, BD Falcon) and counted using a hemocytometer. The assay plate with HepG2-A16-CD81^EGFP cells and compound were then infected with 8×10^3 sporozoites per well and the plates are subjected to a centrifugal force of 650×g to pellet the sporozoites onto the liver cell monolayer. The assay plate is incubated at 37° C. for 2 hours to permit sporozoite invasion, then the media is aspirated from the media plate, and replaced with 50 μl CM (containing a 5× concentration of penicillin/streptomycin; 500 units penicillin and 0.5 mg streptomycin per ml) per well. 50 nl of compound is re-introduced by PinTool and the assay plate incubated for 48 hours at 37° C. before quantification of infected cells by immunofluorescence.
Atovaquone and uninfected wells were used as controls on each plate. Two replicate plates are tested for each assay.
Stained EEFs were then quantified using the Opera Confocal High Content Screening System (PerkinElmer, Waltham, USA). Images were collected using a 20× objective lens (20×/0.45 NA, LWD Plan Fluor, Olympus) at a binning of 2, using a 365 nm Xeon arc lamp illumination to detect the Hoechst-labeled nuclei and 635 nm laser line to excite DyLight649-labeled parasites. The image resolution yielded was approximately 0.66 μm/pixel (˜0.43 μm 2/pixel). All images were analyzed using a custom Acapella™ (PerkinElmer) script parametrized for this assay. In brief, images from fields inside the well were first discarded as out-of focus when the intensity in the nuclear channel was too low. Then, HepG2-A16-CD81^EGFP cells were counted by detecting the nuclei labeled with Hoechst using the nuclei detection libraries available with Acapella™. Parasites were later segmented using the αPyHSP70 immuno-labeling signal, using a custom script library. Once the objects were segmented from the picture, morphological-based (e.g. size, roundness, etc) and intensity-based features were measured for each object detected in the image (i.e. nuclei and parasites). Infection ratio was set as the ratio between parasite number and number of nuclei counted in images considered as “in-focus”.

The mark [2] stands for this setting: read-out: EC50, P. yoelii Sporozoite Invasion Assay.
Where [3] appears, read: 72 h, NF54 or 3D7 infected human erythrocytes, 72 hours, read-out: EC50 (nM), inhibitory efficacy in delaying P. falciparum proliferation in infected human blood cells.
[4] abbreviates: HepG2-A16-CD81EGFP cells, 48 hours, read-out: EC50 (nM), inhibitory efficacy in delaying the proliferation of P. yoelii sporozoite in infected liver cells.
Setting [5] is: infected human red blood cells, read-out: EC50, P. falciparum Proliferation Assay.

This note sets out measurements from patent US20150291598A1 (NOVARTIS AG, priority 2012, published 2015).

SMILES strings stand for the structures. Read-outs that look alike come from different tables or passages of the source.

Consider `CNC(=O)c1ccc(-c2cnc3cnc(C(=O)N(C)c4ccc(Cl)cc4)cn23)cc1` [Compound 228, N-(4-chlorophenyl)-N-methyl-3-[4-(methylcarbamoyl)phenyl]imidazo[1,2-a]pyrazine-6-carboxamide], for which the EC50 is 58 nM in assay [1] (72 h, read-out: EC50 (nM), inhibitory efficacy in delaying P. falciparum proliferation in infected human blood cells); 32 nM with P. yoelii Sporozoite (48 h, read-out: EC50 (nM), inhibitory efficacy in delaying the proliferation of P. yoelii sporozoite in infected liver cells); less than 50 nM in the assay on P. yoelii Sporozoite (setting [2]).

For `CC(=O)Nc1ccc(-c2cnc3cnc(C(=O)N(C)c4ccc(C#N)cc4)cn23)cn1` [Compound 236, N-(4-cyanophenyl)-3-(6-acetamidopyridin-3-yl)-N-methylimidazo[1,2-a]pyrazine-6-carboxamide], the EC50 in assay [1] (setting [3]) was 127 nM; in the assay with P. yoelii Sporozoite (setting [4]) it was 189 nM.

Take `CN(Cc1cn2c(-c3ccc(C(N)=O)cc3)cnc2cn1)c1ccc(Cl)cc1` [Compound 477, 4-(6-{[(4-chlorophenyl)(methyl)amino]methyl}imidazo[1,2-a]pyrazin-3-yl)benzamide]: the EC50 in assay [1] (setting [3]) is 9 nM; in assay [1] (setting [5]), less than 50 nM; in the assay with P. yoelii Sporozoite (setting [2]), less than 50 nM; in the assay with P. yoelii Sporozoite (setting [4]) it was 11 nM.

For the compound `COC(=O)Nc1ccc(-c2cnc3cnc(C(=O)N(C)c4ccc(C#N)cc4)cn23)cc1` [Compound 482, methyl N-(4-{6-[(4-cyanophenyl)(methyl)carbamoyl]imidazo[1,2-a]pyrazin-3-yl}phenyl)carbamate], the EC50 in assay [1] (setting [3]) came out at 37 nM; in the assay with P. yoelii Sporozoite (setting [4]) it was 64 nM.

For `CN(C(=O)c1cn2c(-c3ccc(C(N)=O)cc3)cnc2cn1)c1ccc(Cl)cc1` [Compound 486, 3-(4-carbamoylphenyl)-N-(4-chlorophenyl)-N-methylimidazo[1,2-a]pyrazine-6-carboxamide], the figures for the EC50 (in assay [1] (setting [3]); in assay [1] (setting [5]); with P. yoelii Sporozoite (setting [4])) were 42 nM, less than 50 nM and 120 nM, respectively.

Turning to `CN(C(=O)c1cn2c(-c3ccc4c(cnn4C)c3)cnc2cn1)c1ccc(C#N)cc1` [Compound 487, N-(4-cyanophenyl)-N-methyl-3-(1-methyl-1H-indazol-5-yl)imidazo[1,2-a]pyrazine-6-carboxamide], the EC50 was found to be 96 nM in assay [1] (setting [3]) and 2940 nM in the assay on P. yoelii Sporozoite (setting [4]).

Turning to `Cc1ccc(N(C)C(=O)c2cn3c(-c4ccc(C(F)(F)F)cc4)cnc3cn2)nc1` [Compound 491, N-methyl-N-(5-methylpyridin-2-yl)-3-[4-(trifluoromethyl)phenyl]imidazo[1,2-a]pyrazine-6-carboxamide], the values for the EC50 (in assay [1] (setting [3]); in the assay on P. yoelii Sporozoite (setting [4])) were 199 nM and 1110 nM, respectively.
